Test results: the supplement of paper PMC10307832

What was measured:
Experiment in all cases: relative viability (nuclei count vs DMSO), 5 days (fraction); higher = more cells survive
[1] = compound: Cc1ccc(C(=O)Nc2ccc(CN3CCN(C)CC3)c(C(F)(F)F)c2)cc1C#Cc1cnc2cccnn12 [Ponatinib] + Cc1nc(NC(=O)N2CCC[C@H]2C(N)=O)sc1-c1ccnc(C(C)(C)C(F)(F)F)c1 [Alpelisib] (partner 2 µM)
Procedure, shortened: (§1)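 A single step with final 0.05% Triton X-100, 1% formaldehyde and 1 ug/ml Hoechst fixed the cells and stained nuclei 5 days after treatment. Lung cancer cell lines in 1536-well plates had been treated by pin tool the day after seeding with one drug alone or a fixed anchor-drug dose plus five library-drug doses (not always all listed) in √10 steps, and nuclei were counted on 4× images. Relative viability is the ratio of nuclei in treated wells to nuclei in vehicle wells, taken as the median of duplicate plates.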

[2] = compound: Cc1ccc(C(=O)Nc2ccc(CN3CCN(C)CC3)c(C(F)(F)F)c2)cc1C#Cc1cnc2cccnn12 [Ponatinib] + Cc1nc(Nc2ncc(C(=O)Nc3c(C)cccc3Cl)s2)cc(N2CCN(CCO)CC2)n1 [Dasatinib] (partner 0.075 µM)
Procedure, shortened: as §1

[3] = compound: Cc1ccc(Nc2nccc(N(C)c3ccc4c(C)n(C)nc4c3)n2)cc1S(N)(=O)=O [Pazopanib] + COc1cc2c(Oc3ccc(NC(=O)C4(C(=O)Nc5ccc(F)cc5)CC4)cc3F)ccnc2cc1OCCCN1CCOCC1 [Foretinib] (partner 0.25 µM)
Procedure, shortened: as §1

[4] = compound: Cc1ccc(Nc2nccc(N(C)c3ccc4c(C)n(C)nc4c3)n2)cc1S(N)(=O)=O [Pazopanib] + C[C@@H](Oc1cc(-c2cnn(C3CCNCC3)c2)cnc1N)c1c(Cl)ccc(F)c1Cl [Crizotinib] (partner 1 µM)
Procedure, shortened: as §1

Cell Line	relative viability ([1]; first compound 0.002 µM)	relative viability ([1]; first compound 0.006325 µM)	relative viability ([1]; first compound 0.06325 µM)	relative viability ([1]; first compound 0.2 µM)	relative viability ([2]; first compound 0.002 µM)	relative viability ([2]; first compound 0.006325 µM)	relative viability ([2]; first compound 0.06325 µM)	relative viability ([2]; first compound 0.2 µM)	relative viability ([3]; first compound 0.01 µM)	relative viability ([3]; first compound 0.03162 µM)	relative viability ([3]; first compound 0.1 µM)	relative viability ([3]; first compound 0.3162 µM)	relative viability ([3]; first compound 1 µM)	relative viability ([4]; first compound 0.01 µM)	relative viability ([4]; first compound 0.03162 µM)	relative viability ([4]; first compound 0.1 µM)	relative viability ([4]; first compound 0.3162 µM)	relative viability ([4]; first compound 1 µM)
201T	1.02	1.03	1.08	1.02	0.61	0.593	0.593	0.461	1.13	1.09	1.1	1.15	0.996	1.05	1.07	1.03	1.06	1.06
A549	0.772	0.931	0.949	0.634					0.905	1.03	1.16	0.985	0.913	0.813	0.855	0.709	0.692	0.732
A-427	1.08	1.06	1.07	0.919	0.696	0.784	0.721	0.481	0.971	1.21	1.15	1.02	1.05	1.01	0.934	0.967	0.788	0.818
ABC-1	1.18	0.987	1.08	0.874	0.465	0.614	0.539	0.629	0.843	1.06		0.975	1.04	1.27	1.04	0.873	0.986	1.11
BEN	0.948	0.977	1.08	0.916	0.255	0.279	0.257	0.311		0.656	0.517	0.804	0.696	0.737	1.05	0.814	0.904	0.787
CAL-12T	1.03	1.12	1.46	0.979	0.48	0.37	0.365	0.219	1.03	1.06	1.17	1.05	0.97	0.685	0.676	0.726	0.6	0.675
COR-L23	0.747	0.775	0.844	0.778	0.526	0.502	0.666	0.433	0.916	1.03	0.922	0.986	0.989	0.635	0.645	0.663	0.704	0.64
COR-L 105	0.976	0.846	1.31	0.935	0.314	0.41	0.344	0.341	0.926	0.87	1.15	1.04	1.18	0.712	0.984	0.838	0.883	0.964
Calu-6	0.956	1.04	1.02	0.685					0.89	0.954	0.93	0.848	0.803	0.853	0.821	0.81	0.764	0.762
ChaGo-K-1					0.487	0.567	0.488	0.509	0.934	0.909	1.01	0.884	0.946	1.18	1.19	0.997	1.23	1.06
EBC-1	0.78	0.836	0.903	0.846					0.095	0.104	0.0934	0.103	0.0962	0.224	0.202	0.197	0.184	0.187
EKVX	0.805	0.936	1.15	0.898	0.56	0.624	0.502	0.483	0.961	0.866	0.62	0.901	0.942	0.841	1.07	0.898	0.916	0.891
EMC-BAC-2	0.695	0.707	0.82	0.721	0.335	0.319	0.323	0.305		0.991	1.01	1.02	1.06	0.735	0.786	0.649	0.782	0.749
EPLC-272H	0.781	1.12	1.12	0.942	0.359	0.33	0.376	0.279		0.762	0.693	0.758	0.793	0.771	1.11	1.07	0.885	1.03
H3255	0.641	0.697	0.743	0.688	0.326	0.317	0.387	0.367	0.625	0.838	0.794	0.84	0.939	0.828	0.882	0.853	0.945	0.995
HARA	0.779	0.79	0.97	0.729	0.281	0.215	0.233	0.173	0.902	0.977	1	0.884	0.95	1.1	1.04	1.22	1.05	1.1
HCC-15	0.82	0.906	0.988	0.805	0.585	0.61	0.828	0.61	0.999	1.01	1.16	1.01	1.08	0.773	0.924	1.01	0.813	0.893
HCC-44	0.802	0.897	0.92	0.794										0.839	0.779	0.86	0.795	0.823
HCC-78	0.321	0.301	0.408	0.323	0.33	0.35	0.296	0.382	0.523	0.553	0.524	0.638	0.701	0.366	0.354	0.349	0.358	0.383
